From ChEMBL document CHEMBL4342419 (Eur J Med Chem, 2019)

Columns and labels:
[1] = target: T1, 5-hydroxytryptamine receptor 1A (Homo sapiens, UniProt P08908); test: Antagonist activity at 5-HT1A receptor (unknown origin)
T1 sequence (P08908 whole entry): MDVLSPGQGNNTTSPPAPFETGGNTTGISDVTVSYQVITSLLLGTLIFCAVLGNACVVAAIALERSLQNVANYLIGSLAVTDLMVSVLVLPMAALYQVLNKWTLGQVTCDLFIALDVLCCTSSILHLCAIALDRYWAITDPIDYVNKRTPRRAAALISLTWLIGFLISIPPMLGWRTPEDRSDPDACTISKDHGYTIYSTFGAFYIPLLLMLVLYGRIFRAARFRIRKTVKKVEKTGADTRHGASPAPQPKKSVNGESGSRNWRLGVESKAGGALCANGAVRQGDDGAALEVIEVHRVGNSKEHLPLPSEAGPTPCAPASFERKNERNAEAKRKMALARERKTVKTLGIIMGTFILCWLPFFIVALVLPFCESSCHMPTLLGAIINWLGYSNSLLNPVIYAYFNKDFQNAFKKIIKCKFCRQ

[2] = target: T2, 5-hydroxytryptamine receptor 7 (Homo sapiens, UniProt P34969); test: Antagonist activity at 5-HT7 receptor (unknown origin)
[3] = target: T2, 5-hydroxytryptamine receptor 7; test: biochemical; assay type: cell-based
[4] = target: 5-hydroxytryptamine receptor 7 (Rattus norvegicus, UniProt P32305); test: Displacement of [3H]5-CT from recombinant rat 5-HT7 receptor expressed in HEK293 cells; assay type: cell-based
5-hydroxytryptamine receptor 7 (Rattus norvegicus, UniProt P32305), sequence (P32305 whole entry): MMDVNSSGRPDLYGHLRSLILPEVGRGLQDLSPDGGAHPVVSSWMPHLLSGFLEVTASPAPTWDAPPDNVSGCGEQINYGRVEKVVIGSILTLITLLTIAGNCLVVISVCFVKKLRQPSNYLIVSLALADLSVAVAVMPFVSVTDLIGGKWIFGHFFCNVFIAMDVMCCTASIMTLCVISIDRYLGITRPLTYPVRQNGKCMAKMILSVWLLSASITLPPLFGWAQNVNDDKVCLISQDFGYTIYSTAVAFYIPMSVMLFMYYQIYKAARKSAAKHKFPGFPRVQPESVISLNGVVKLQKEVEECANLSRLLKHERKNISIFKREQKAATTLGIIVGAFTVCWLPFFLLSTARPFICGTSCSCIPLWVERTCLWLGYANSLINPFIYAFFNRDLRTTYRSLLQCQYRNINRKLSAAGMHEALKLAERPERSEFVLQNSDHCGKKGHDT

T2 sequence (P34969 whole entry): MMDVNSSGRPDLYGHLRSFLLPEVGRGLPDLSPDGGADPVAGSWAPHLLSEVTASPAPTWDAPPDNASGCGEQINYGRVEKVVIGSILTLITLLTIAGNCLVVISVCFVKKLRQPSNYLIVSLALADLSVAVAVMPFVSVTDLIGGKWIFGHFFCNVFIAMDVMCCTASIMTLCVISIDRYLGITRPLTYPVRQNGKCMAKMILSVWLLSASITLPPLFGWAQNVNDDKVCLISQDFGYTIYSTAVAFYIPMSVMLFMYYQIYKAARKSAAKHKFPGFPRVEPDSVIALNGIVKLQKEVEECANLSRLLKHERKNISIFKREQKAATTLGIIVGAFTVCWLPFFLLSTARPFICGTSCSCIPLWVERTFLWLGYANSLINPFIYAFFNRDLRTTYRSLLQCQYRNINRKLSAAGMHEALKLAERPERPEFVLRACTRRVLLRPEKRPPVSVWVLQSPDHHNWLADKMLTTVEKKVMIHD

Row | Structure (SMILES) | Ki [1] [nM] | also measured
1 | CC(Nc1nc(N)nc(NCCOc2ccc(F)cc2)n1)c1ccc(F)cc1 (stereo not drawn) | > 100 | 
2 | CC(Nc1nc(N)nc(NCCOc2ccccc2)n1)c1ccccc1 (stereo not drawn) | > 100 | Ki [2]: 3 nM
3 | COc1cccc(OC)c1-c1cccc(CCN(C)C)c1 | 4830 | 
4 | CCN(CC)C(=O)[C@@H]1C=C2c3cccc4[nH]c(Br)c(c34)C[C@H]2N(C)C1 |  | Ki [3]: 31.6 nM
5 | COc1ccccc1N1CCN(Cc2cn(-c3cccc4ccccc34)c3ccccc23)CC1 | 700 | 
6 | O=C1Cc2ccccc2N1CC/C=C/CCN1CCc2ccccc2C1 | > 1000 | 
7 | CCC1(CCCCN2CCN(c3ccc(Cl)cc3)CC2)C(=O)Nc2cc(F)ccc21 (stereo not drawn) | 1610 | 
8 | Cc1nn(C)c(C)c1-c1ccc(O)c(CCN(C)C)c1 | > 10000 | 
9 | COc1ccc(S(=O)(=O)NCCCN2CCN(c3ccccc3OC)CC2)cc1 | 272 | 
10 | O=S(=O)(c1ccc2cc[nH]c2c1)N1CCC[C@H]1CCN1CCC(Oc2ccc(Cl)cc2)CC1 | 562 | Ki [2]: 1.99 nM
11 | CNC(=O)Cn1c2c(c3ccccc31)CN(CCCCC13CCCc4cccc(c41)NC3=O)CC2 (stereo not drawn) | 128 | Ki [2]: 3.54 nM
12 | CCOc1ccccc1N1CCN(CCCCC(=O)NCc2nc3cc(F)ccc3c(=O)n2-c2ccccc2)CC1 |  | IC50 [1]: 500 nM
13 | Clc1ccc(-c2nn(Cc3ccccc3)c3c2CCNCC3)cc1 [JNJ-18038683 FREE BASE] | 6.5 | Ki [4]: 316 nM
14 | Cc1cccc(S(=O)(=O)N(C)[C@H](C)CCN2CCC(C)CC2)c1 [SB-258719] | > 3000 | 
